The values that follow come from the NIST ThermoML archive (doi:10.1016/j.tca.2018.04.007).

In general, refractive index refers to a measure of how strongly the sample bends light. The term viscosity denotes the resistance of a fluid to flow. Broadly, the mass density is the mass of a sample divided by its volume.

The structures appear in SMILES notation. ± gives the expanded uncertainty stated by the source.

One data set is described as follows: refractive index (Na D-line) (dimensionless). The note with it: 283.15 K; 101.33 kPa; Liquid; Standard Abbe refractometry.
Turning to `CCCC[P+](C)(CCCC)CCCC.O=S(=O)([N-]S(=O)(=O)C(F)(F)F)C(F)(F)F`, the refractive index stood at 1.4403 ± 0.0005.

On to `CCCCn1cc[n+](C)c1.COS(=O)(=O)[O-]` [1-butyl-3-methylimidazolium methyl sulfate], for which the refractive index came out at 1.4831 ± 0.0005.

For the molecule `COS(=O)(=O)[O-].C[n+]1ccccc1` [1-methylpyridinium methylsulfate], the refractive index is given as 1.5164 ± 0.0005.

`CCCC[P+](C)(CCCC)CCCC.[Cl-]` [methyltributylphosphonium chloride]: the refractive index came out at 1.5053 ± 0.0005.

Turning to `CCCC[P+](C)(CCCC)CCCC.COS(=O)(=O)[O-]` [tributylmethylphosphonium methyl sulfate], the refractive index was found to be 1.4782 ± 0.0005.

Staying with this data set, now noted: 293.15 K; 101.33 kPa; Liquid; Standard Abbe refractometry.
On to `CCCC[P+](C)(CCCC)CCCC.O=S(=O)([N-]S(=O)(=O)C(F)(F)F)C(F)(F)F`, for which the refractive index is 1.4374 ± 0.0005.

Consider `CCCCn1cc[n+](C)c1.COS(=O)(=O)[O-]` [1-butyl-3-methylimidazolium methyl sulfate], for which the refractive index is listed as 1.4804 ± 0.0005.

`COS(=O)(=O)[O-].C[n+]1ccccc1` [1-methylpyridinium methylsulfate]: the refractive index turned out to be 1.5139 ± 0.0005.

On to `CCCC[P+](C)(CCCC)CCCC.[Cl-]` [methyltributylphosphonium chloride], for which the refractive index is on record as 1.5037 ± 0.0005.

Regarding `CCCC[P+](C)(CCCC)CCCC.COS(=O)(=O)[O-]` [tributylmethylphosphonium methyl sulfate], the refractive index stood at 1.4755 ± 0.0005.

The data set is the same for the next values; noted with them: 303.15 K; 101.33 kPa; Liquid; Standard Abbe refractometry.
Take `CCCC[P+](C)(CCCC)CCCC.O=S(=O)([N-]S(=O)(=O)C(F)(F)F)C(F)(F)F`: the refractive index amounted to 1.4344 ± 0.0005.

As to `CCCCn1cc[n+](C)c1.COS(=O)(=O)[O-]` [1-butyl-3-methylimidazolium methyl sulfate], the refractive index is 1.4781 ± 0.0005.

`COS(=O)(=O)[O-].C[n+]1ccccc1` [1-methylpyridinium methylsulfate]: the refractive index came out at 1.5113 ± 0.0005.

As to `CCCC[P+](C)(CCCC)CCCC.[Cl-]` [methyltributylphosphonium chloride], the refractive index was 1.4999 ± 0.0005.

As for `CCCC[P+](C)(CCCC)CCCC.COS(=O)(=O)[O-]` [tributylmethylphosphonium methyl sulfate], the refractive index was 1.4728 ± 0.0005.

The same data set, now with this note: 313.15 K; 101.33 kPa; Liquid; Standard Abbe refractometry.
On to `CCCC[P+](C)(CCCC)CCCC.O=S(=O)([N-]S(=O)(=O)C(F)(F)F)C(F)(F)F`, for which the refractive index came out at 1.4314 ± 0.0005.

`CCCCn1cc[n+](C)c1.COS(=O)(=O)[O-]` [1-butyl-3-methylimidazolium methyl sulfate]: the refractive index was 1.4753 ± 0.0005.

As to `COS(=O)(=O)[O-].C[n+]1ccccc1` [1-methylpyridinium methylsulfate], the refractive index was 1.5088 ± 0.0005.

`CCCC[P+](C)(CCCC)CCCC.[Cl-]` [methyltributylphosphonium chloride]: the refractive index was found to be 1.4972 ± 0.0005.

Consider `CCCC[P+](C)(CCCC)CCCC.COS(=O)(=O)[O-]` [tributylmethylphosphonium methyl sulfate], for which the refractive index is 1.4702 ± 0.0005.

The same data set, now with this note: 323.15 K; 101.33 kPa; Liquid; Standard Abbe refractometry.
`CCCC[P+](C)(CCCC)CCCC.O=S(=O)([N-]S(=O)(=O)C(F)(F)F)C(F)(F)F`: the refractive index is 1.4285 ± 0.0005.

With `CCCCn1cc[n+](C)c1.COS(=O)(=O)[O-]` [1-butyl-3-methylimidazolium methyl sulfate], the refractive index came to 1.4729 ± 0.0005.

With `COS(=O)(=O)[O-].C[n+]1ccccc1` [1-methylpyridinium methylsulfate], the refractive index is 1.5063 ± 0.0005.

Take `CCCC[P+](C)(CCCC)CCCC.[Cl-]` [methyltributylphosphonium chloride]: the refractive index turned out to be 1.4952 ± 0.0005.

In the case of `CCCC[P+](C)(CCCC)CCCC.COS(=O)(=O)[O-]` [tributylmethylphosphonium methyl sulfate], the refractive index is recorded as 1.4673 ± 0.0005.

Still in this data set, the particulars now being: 333.15 K; 101.33 kPa; Liquid; Standard Abbe refractometry.
For the molecule `CCCC[P+](C)(CCCC)CCCC.O=S(=O)([N-]S(=O)(=O)C(F)(F)F)C(F)(F)F`, the refractive index is 1.4255 ± 0.0005.

Regarding `CCCCn1cc[n+](C)c1.COS(=O)(=O)[O-]` [1-butyl-3-methylimidazolium methyl sulfate], the refractive index was 1.4704 ± 0.0005.

Regarding `COS(=O)(=O)[O-].C[n+]1ccccc1` [1-methylpyridinium methylsulfate], the refractive index turned out to be 1.5039 ± 0.0005.

As to `CCCC[P+](C)(CCCC)CCCC.[Cl-]` [methyltributylphosphonium chloride], the refractive index is given as 1.4923 ± 0.0005.

With `CCCC[P+](C)(CCCC)CCCC.COS(=O)(=O)[O-]` [tributylmethylphosphonium methyl sulfate], the refractive index is given as 1.4647 ± 0.0005.

Still in this data set, the particulars now being: 343.15 K; 101.33 kPa; Liquid; Standard Abbe refractometry.
Turning to `CCCC[P+](C)(CCCC)CCCC.O=S(=O)([N-]S(=O)(=O)C(F)(F)F)C(F)(F)F`, the refractive index is 1.4228 ± 0.0005.

Take `CCCCn1cc[n+](C)c1.COS(=O)(=O)[O-]` [1-butyl-3-methylimidazolium methyl sulfate]: the refractive index is 1.4678 ± 0.0005.

As for `COS(=O)(=O)[O-].C[n+]1ccccc1` [1-methylpyridinium methylsulfate], the refractive index is 1.5013 ± 0.0005.

Turning to `CCCC[P+](C)(CCCC)CCCC.[Cl-]` [methyltributylphosphonium chloride], the refractive index was 1.4888 ± 0.0005.

As for `CCCC[P+](C)(CCCC)CCCC.COS(=O)(=O)[O-]` [tributylmethylphosphonium methyl sulfate], the refractive index is reported as 1.4619 ± 0.0005.

Assay in a further data set: not given
The conditions noted are these: 283.15 K; 101.33 kPa; Liquid; Capillary tube (Ostwald / Ubbelohde) method.
For the molecule `CCCC[P+](C)(CCCC)CCCC.O=S(=O)([N-]S(=O)(=O)C(F)(F)F)C(F)(F)F`, the viscosity was 616.7 ± 26 mPa·s.

Take `CCCCn1cc[n+](C)c1.COS(=O)(=O)[O-]` [1-butyl-3-methylimidazolium methyl sulfate]: the viscosity worked out at 531.6 ± 22 mPa·s.

Regarding `COS(=O)(=O)[O-].C[n+]1ccccc1` [1-methylpyridinium methylsulfate], the viscosity came to 199 ± 4.9 mPa·s.

The data set is the same for the next values; noted with them: 283.15 K; 101.33 kPa; Liquid; Vibrating tube method.
For `CCCC[P+](C)(CCCC)CCCC.O=S(=O)([N-]S(=O)(=O)C(F)(F)F)C(F)(F)F`, the mass density is 1267.21 ± 2 kg/m3.

`CCCCn1cc[n+](C)c1.COS(=O)(=O)[O-]` [1-butyl-3-methylimidazolium methyl sulfate]: the mass density is on record as 1218.78 ± 2 kg/m3.

`COS(=O)(=O)[O-].C[n+]1ccccc1` [1-methylpyridinium methylsulfate]: the mass density was determined as 1355 ± 2.1 kg/m3.

In the case of `CCCC[P+](C)(CCCC)CCCC.[Cl-]` [methyltributylphosphonium chloride], the mass density was found to be 964.23 ± 2 kg/m3.
